Molecular target: Human immunodeficiency virus type 1 reverse transcriptase (Human immunodeficiency virus 1, UniProt Q72547)
Test: Binding affinity to Human immunodeficiency virus 1 reverse transcriptase

Which pEC50 does the source give for CCC(=CCN1Cc2cc(C)cc3nc(O)n(c23)C[C@@H]1C)CC here?
Its pEC50 is 6.51.

Which pEC50 does the source give for CC(C)=CCN1Cc2cc(C)cc3[nH]c(=S)n(c23)CC1C (centres undefined) here?
Its pEC50 is 6.1.

How did the pEC50 turn out when CC(C)=CCN1Cc2c(Cl)ccc3[nH]c(=S)n(c23)C[C@@H]1C [TIVIRAPINE] was run?
The pEC50 was 8.34.

For CCCN1Cc2cccc3[nH]c(=S)n(c23)CC1C (centres undefined), which pEC50 is on record?
Its pEC50 is 6.62.

Which pEC50 does the source give for CC1Cn2c(S)nc3cc(Cl)cc(c32)CN1CC1CCC1 (centres undefined) here?
Its pEC50 is 7.37.

CC(C)=CCN1Cc2c(C)ccc3nc(S)n(c23)C[C@@H]1C was tested. Which pEC50 did it give?
The pEC50 was 7.85.

For CC(C)=CCN1Cc2cccc3[nH]c(=S)n(c23)CC1C (centres undefined), which pEC50 is on record?
Its pEC50 is 7.36.

How did the pEC50 turn out when C=C(C)CN1Cc2cc(Cl)cc3[nH]c(=S)n(c23)CC1C (centres undefined) was run?
The pEC50 was 6.35.

With CC(C)=CCN1Cc2cc(Cl)cc3nc(O)n(c23)CC1C (centres undefined) as the molecule, how does the pEC50 read?
The pEC50 was 7.6.

For CCC(=CCN1Cc2cc(Cl)cc3nc(S)n(c23)CC1C)CC (centres undefined), which pEC50 is on record?
Its pEC50 is 7.82.

For CC(C)=CCN1Cc2cccc3nc(O)n(c23)CC1C (centres undefined), which pEC50 is on record?
The pEC50 was 5.38.

C=C(C)CN1Cc2cc(Cl)cc3[nH]c(=O)n(c23)CC1C (centres undefined) was tested. Which pEC50 did it give?
Its pEC50 is 5.33.

CC(C)=CCN1Cc2cc(Cl)c(Cl)c3nc(S)n(c23)C[C@@H]1C was tested. Which pEC50 did it give?
Its pEC50 is 7.6.

C=CCN1Cc2cccc3[nH]c(=O)n(c23)CC1C (centres undefined) was tested. Which pEC50 did it give?
The pEC50 was 4.23.

Which pEC50 does the source give for CC(C)=CCN1Cc2c(Br)ccc3nc(S)n(c23)C[C@@H]1C here?
The pEC50 was 8.52.

For CCC(=CCN1Cc2c(Cl)ccc3[nH]c(=S)n(c23)CC1C)CC (centres undefined), which pEC50 is on record?
The pEC50 was 8.29.

With CC(C)=CCN1Cc2cc(Cl)cc3nc(S)n(c23)CC1C (centres undefined) [TIBO] as the molecule, how does the pEC50 read?
The pEC50 was 7.04.

C=C(C)CN1Cc2cccc3[nH]c(=O)n(c23)CC1C (centres undefined) was tested. Which pEC50 did it give?
Its pEC50 is 4.85.

With CC1Cn2c(S)nc3cc(Cl)cc(c32)CN1CCC1CC1 (centres undefined) as the molecule, how does the pEC50 read?
The pEC50 was 5.66.

— ChEMBL document CHEMBL3045190, “Atomic and molecular parameters-based comparative QSAR study on tetrahydroimidazodiazepinone derivatives” (Med Chem Res, 2012)
